In patent publication US11117901B2, “Substituted pyrazolo[4,3-h]quinazolines as choline kinase inhibitors” (NERVIANO MEDICAL SCIENCES S.R.L., priority 2017, dated 2021):

What was measured:
[1] = target: T1, hChoKβ FL (Homo sapiens, UniProt Q9Y259); experiment: Biochemical kinase inhibition assay (Kinase-Glo luminescent) on hChoKβ FL; details: recombinant hChoKβ FL 30 nM, ATP 5 μM, choline 20 μM, 60 min rt; read-out: ChoKβ IC50
T1 construct: hChoKβ full length (FL), corresponding to aminoacids 2-395; GST (N, cleaved yes); PreScission Protease recognition site (N); made in house; host or cells: Escherichia coli BL21pLysS (DE3)
T1 sequence (Q9Y259 2-395): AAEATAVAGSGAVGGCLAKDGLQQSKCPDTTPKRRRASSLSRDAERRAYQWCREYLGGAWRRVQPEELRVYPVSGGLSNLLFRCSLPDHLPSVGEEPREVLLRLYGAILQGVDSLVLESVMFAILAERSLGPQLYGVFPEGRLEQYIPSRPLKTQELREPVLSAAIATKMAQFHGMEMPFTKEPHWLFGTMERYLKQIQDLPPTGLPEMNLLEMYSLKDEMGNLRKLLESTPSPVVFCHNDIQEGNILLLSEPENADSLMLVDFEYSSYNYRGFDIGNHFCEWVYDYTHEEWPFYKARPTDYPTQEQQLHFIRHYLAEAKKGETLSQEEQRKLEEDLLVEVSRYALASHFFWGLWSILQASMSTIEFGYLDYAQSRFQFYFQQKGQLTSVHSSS
Method: (§1) HumanΔ49ChoKα ([…]Δ49N-hChoKα) cDNA fragment 362-1534, corresponding to aminoacids 50 457 (J. Mol. Biol. 2006, 364, 136-151), and hChoKβ full length (FL), corresponding to aminoacids 2-395 ((PLoS ONE 2009, 4, e7819), were amplified by PCR from human library and cloned, inserting upstream a Prescission Protease recognition site, in pDonor 221 vector, using the Gateway Technology® (Invitrogen). After sequence control, LR reaction was performed in the final expression pGEX 2Tg vector. Both the proteins were expressed in Escherichia coli BL21pLysS (DE3) strain in auto-induction (Kessler) medium in the presence of […] carbenicillin at 25° C. for 16 h. Cells were harvested by centrifugation, the pellet was re-suspended in Lysis buffer (50 mM Tris-HCl pH 7.8, 150 mM NaCl, 10% glycerol, 0.2% CHAPS, 20 mM DTT, Protease Inhibitor Cocktail Tablets from Roche Biochemicals) and lysed by Gaulin homogenizer (Niro Soavi). The lysate was cleared by centrifugation. The supernatant was added to GSH resin and let flow by gravity. The GSH resin was washed with 5 column volume (CV) of cold wash buffer (50 mM Tris-HCl pH 7.8, 150 mM NaCl, 10% glycerol), then with 10 CV of the same buffer containing 2 mM of DTT. Both GST-Δ49N-hChoKα and hChoKβ were subjected to on-column cleavage of the GST tag with Prescission Protease overnight. The eluted cleaved proteins were further purified by ion exchange (ResQ 6 mL chromatography column from GE healthcare) with a gradient from 50 to 500 mM NaCl in 30 CV. The fractions containing […]Δ49N-hChoKα or hChoKβ were pooled, concentrated and gel filtered on a Superdex200 16/60 (GE Healthcare). The final protein concentration was estimated using the Bradford assay. All the samples purified were resolved by SDS-PAGE.
(§2) Biochemical Kinase inhibition Assay on Δ49N-hChoKα and hChoKβFL
(§3) The biochemical activity of compounds against Δ49N-ChoKα and ChoK3 FL were determined using the Kinase-Glo™ Luminescent Kinase Assay (Promega cat. V6711). The assay is based on incubation of the recombinant Δ49N-hChoKα and hChoKβ FL produced in house, 2.2 nM and 30 nM, respectively, with the specific substrates, choline (Sigma-Aldrich-C7017) and ATP, followed by quantification, at the end of reaction time, of the residual not reacted ATP.
(§4) Compounds were 3-fold serially diluted from 10 to 0.0005 μM, then incubated for 60 minutes at room temperature in the presence of ATP 5 μM, choline (5 μM for ChoKα and 20 μM for ChoKβ) and enzyme in a final volume of 19 μL of kinase buffer (50 mM Hepes pH 7.5, 10 mM MgCl2, 1 mM DTT, 3 μM Na3VO4 and 0.2 mg/mL BSA). The final concentration of DMSO was 1%. The assay was run in a robotized format on 384-well plates (Perkin Elmer cat. #6005301).
(§5) At the end of the incubation, an amount of 19 μL of KinaseGlo Reagent was added to each well to stop the reaction and after 30 minutes the luminescence signal was measured using ViewLux reader (Perkin Elmer).
(§6) All information about plate dilution, distribution and raw data of inhibition are tracked via barcode reading and stored in an Oracle DB. The data per each molecule are analyzed by an internally customized version of the SW package “Assay Explorer” which provides sigmoidal fittings of the ten-dilution curves for IC50 determination using a 4 parameter logistic equation: y=bottom+(top−bottom)/(1+10^((log IC50−x)*slope)) where x is the logarithm of the inhibitor concentration, y is the response; y starts at bottom and goes to top with a sigmoid shape.

[2] = target: T2, Δ49N-hChoKα (Homo sapiens, UniProt P35790); experiment: Biochemical kinase inhibition assay (Kinase-Glo luminescent) on Δ49N-hChoKα; details: recombinant Δ49N-hChoKα 2.2 nM, ATP 5 μM, choline 5 μM, 60 min rt; read-out: ChoKα IC50
T2 construct: cDNA fragment 362-1534, corresponding to aminoacids 50 457; GST (N, cleaved yes); PreScission Protease recognition site (N); made in house; host or cells: Escherichia coli BL21pLysS (DE3)
T2 sequence (P35790 50-439 isoform P35790-2): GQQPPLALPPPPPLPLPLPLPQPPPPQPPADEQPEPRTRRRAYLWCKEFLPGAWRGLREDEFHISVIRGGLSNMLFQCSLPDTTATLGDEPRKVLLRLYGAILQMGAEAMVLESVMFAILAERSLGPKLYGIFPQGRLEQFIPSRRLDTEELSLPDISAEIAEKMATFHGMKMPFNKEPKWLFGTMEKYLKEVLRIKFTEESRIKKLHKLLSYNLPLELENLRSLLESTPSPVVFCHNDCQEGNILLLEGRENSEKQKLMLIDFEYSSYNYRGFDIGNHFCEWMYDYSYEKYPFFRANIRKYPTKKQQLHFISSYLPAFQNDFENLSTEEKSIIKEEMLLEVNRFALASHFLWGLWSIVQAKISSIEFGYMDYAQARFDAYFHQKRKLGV
Method: as §1, §2, §3, §4, §5, §6

| Structure (SMILES) | IC50 [1] [nM] | IC50 [2] [nM] |
| --- | --- | --- |
| Cn1nc(C(=O)Nc2cccc(CN3CCC(N4CCCCC4)CC3)c2)c2c1-c1nc(N)ncc1CC2(C)C [compound 109] | > 10000 | 431 |
| CC1(C)Cc2cnc(N)nc2-c2[nH]nc(C(=O)Nc3cccc(CN4CCC(N5CCCCC5)CC4)c3)c21 [compound 110] | 2850 | 135 |
| CC1CCN(C2CCN(Cc3cccc(NC(=O)c4nn(C)c5c4C(C)(C)Cc4cnc(N)nc4-5)c3)CC2)CC1 [compound 111] | > 10000 | 640 |
| CC1CCN(C2CCN(Cc3cccc(NC(=O)c4n[nH]c5c4C(C)(C)Cc4cnc(N)nc4-5)c3)CC2)CC1 [compound 112] | 2130 | 187 |
| CC(C)(C)OC(=O)NC1CCN(Cc2cccc(NC(=O)c3n[nH]c4c3C(C)(C)Cc3cnc(N)nc3-4)c2)CC1 [compound 114] | 2390 | 562 |
| CN(C)[C@@H]1CCN(C(=O)Cc2csc(NC(=O)c3n[nH]c4c3C(C)(C)Cc3cnc(N)nc3-4)n2)C1 [compound 116] | 77 | 4 |
| CN(C)C1CCN(Cc2ccc(NC(=O)c3nn(C)c4c3C(C)(C)Cc3cnc(N)nc3-4)cc2)CC1 [compound 117] | > 10000 | 16 |
| CN(C)C1CCN(Cc2ccc(NC(=O)c3n[nH]c4c3C(C)(C)Cc3cnc(N)nc3-4)cc2)CC1 [compound 118] | 72 | 33 |
| CNC1CCN(C(=O)Cc2csc(NC(=O)c3n[nH]c4c3C(C)(C)Cc3cnc(N)nc3-4)n2)CC1 [compound 119] | 66 | 53 |
| CC1(C)Cc2cnc(N)nc2-c2[nH]nc(C(=O)Nc3cccc(CC(=O)N4CCC(N5CCCCC5)CC4)c3)c21 [compound 120] | 913 | 19 |
| CNc1ncc2c(n1)-c1[nH]nc(C(=O)Nc3nc(CC(=O)N4CCC(N5CCCCC5)CC4)cs3)c1C(C)(C)C2 [compound 121] | > 10000 | 18 |
| CNc1ncc2c(n1)-c1[nH]nc(C(=O)Nc3nc(CC(=O)N4CCC(N5CCC(C)CC5)CC4)cs3)c1C(C)(C)C2 [compound 122] | > 10000 | 11 |
| CC1CCN(C2CCN(C(=O)Cc3csc(N(C)C(=O)c4n[nH]c5c4C(C)(C)Cc4cnc(N)nc4-5)n3)CC2)CC1 [compound 123] | > 10000 | 53 |
| CN(C(=O)c1nn(C)c2c1C(C)(C)Cc1cnc(N)nc1-2)c1nc(CC(=O)N2CCC(N3CCCCC3)CC2)cs1 [compound 124] | > 10000 | 187 |
| CC1(C)Cc2cnc(N)nc2-c2[nH]nc(C(=O)Nc3ccc(CNc4ccc(CN5CCC(N6CCCCC6)CC5)cc4)cc3)c21 [compound 126] | 592 | 3 |
| COC(=O)C1(c2csc(NC(=O)c3n[nH]c4c3C(C)(C)Cc3cnc(N)nc3-4)n2)CC1 [compound 127] | > 10000 | 617 |
| Cn1nc(C(=O)Nc2ccc(CN3CCC(N4CCCCC4)CC3)cc2)c2c1-c1nc(N)ncc1CC2(C)C [compound 128] | > 10000 | 126 |
| CC1(C)Cc2cnc(N)nc2-c2[nH]nc(C(=O)Nc3nc(C4(C(=O)O)CC4)cs3)c21 [compound 129] | > 10000 | 220 |
| CN(C)[C@@H]1CCN(C(=O)C2(c3csc(NC(=O)c4n[nH]c5c4C(C)(C)Cc4cnc(N)nc4-5)n3)CC2)C1 [compound 130] | > 10000 | 534 |
| CC1(C)Cc2cnc(N)nc2-c2[nH]nc(C(=O)Nc3nc(C4(C(=O)N5CCC(N6CCCCC6)CC5)CC4)cs3)c21 [compound 131] | 3940 | 233 |
| CC(C)(C)OC(=O)NC1CCN(Cc2ccc(NC(=O)c3n[nH]c4c3C(C)(C)Cc3cnc(N)nc3-4)cc2)CC1 [compound 133] | 1440 | 536 |
| Cn1nc(C(=O)Nc2nc(CN3CCC(N4CCCCC4)CC3)cs2)c2c1-c1nc(N)ncc1CC2(C)C [compound 141] | > 10000 | 622 |
| CN(C)[C@@H]1CCN(C(=O)Cc2cccc(NC(=O)c3n[nH]c4c3C(C)(C)Cc3cnc(N)nc3-4)c2)C1 [compound 142] | 671 | 110 |
| CC1(C)Cc2cnc(N)nc2-c2[nH]nc(C(=O)Nc3nc(CN4CCC(N5CCCCC5)CC4)cs3)c21 [compound 143] | 2160 | 142 |
| CC1(C)Cc2cnc(N)nc2-c2[nH]nc(C(=O)Nc3ncc[nH]3)c21 [compound 144] | 688 | 546 |
| CC1(C)Cc2cnc(N)nc2-c2[nH]nc(C(=O)Nc3nc(CC(=O)N4CCN(C5CCCCC5)CC4)cs3)c21 [compound 150] | 352 | 6 |

Now from value to compound:

| IC50 [1] [nM] | IC50 [2] [nM] | Structure (SMILES) |
| --- | --- | --- |
| 928 | 11 | CC1(C)Cc2cnc(N)nc2-c2[nH]nc(C(=O)Nc3nc(CC(=O)NC4CCN(C5CCCCC5)CC4)cs3)c21 [compound 145] |
| 551 | 65 | CN(C)C1CCN(C(=O)Cc2cccc(NC(=O)c3n[nH]c4c3C(C)(C)Cc3cnc(N)nc3-4)c2)CC1 [compound 146] |
| > 10000 | 594 | CN(C)[C@@H]1CCN(Cc2csc(NC(=O)c3nn(C)c4c3C(C)(C)Cc3cnc(N)nc3-4)n2)C1 [compound 147] |
| 1100 | 357 | CN(C)[C@@H]1CCN(Cc2csc(NC(=O)c3n[nH]c4c3C(C)(C)Cc3cnc(N)nc3-4)n2)C1 [compound 148] |
| 3210 | 164 | CC1(C)Cc2cnc(N)nc2-c2[nH]nc(C(=O)Nc3cccc(CC(=O)N4CCC(N)CC4)c3)c21 [compound 149] |
| 5340 | 174 | CN1CCc2nc(NC(=O)c3n[nH]c4c3C(C)(C)Cc3cnc(N)nc3-4)sc2C1 [compound 151] |
| > 10000 | 534 | CC1(C)Cc2cnc(N)nc2-c2[nH]nc(C(=O)Nc3nc(CN4CCC(N)CC4)cs3)c21 [compound 152] |
| 564 | 14 | CC1(C)Cc2cnc(N)nc2-c2[nH]nc(C(=O)Nc3nc(CC(=O)N4CC[C@@H]([N+](C)(C)[O-])C4)cs3)c21 [compound 154] |
| > 10000 | 629 | Cc1csc(NC(=O)c2nn(C)c3c2C(C)(C)Cc2cnc(N)nc2-3)n1 [compound 155] |
| 249 | 3 | CC1(C)Cc2cnc(N)nc2-c2[nH]nc(C(=O)Nc3nc(CNC4CCN(C5CCCCC5)CC4)cs3)c21 [compound 156] |
| 292 | 6 | CC1(C)Cc2cnc(N)nc2-c2[nH]nc(C(=O)Nc3nc(COC4CCN(C5CCCCC5)CC4)cs3)c21 [compound 157] |
| 2210 | 25 | CC1(C)Cc2cnc(N)nc2-c2[nH]nc(C(=O)Nc3nc(CC(=O)N4CCN(c5ccccc5)CC4)cs3)c21 [compound 160] |
| > 10000 | 507 | CC1(C)Cc2cnc(N)nc2-c2[nH]nc(C(=O)N3CCN(c4ccccc4)CC3)c21 [compound 161] |
| 69 | 180 | CC1(C)Cc2cnc(N)nc2-c2[nH]nc(C(=O)NCc3ccc(C(=O)N4CCC(N5CCCCC5)CC4)cc3)c21 [compound 165] |
| 134 | 136 | CN1CCC(NC(=O)c2ccc(CNC(=O)c3n[nH]c4c3C(C)(C)Cc3cnc(N)nc3-4)cc2)CC1 [compound 166] |
